Test results taken from patent US12102685B2, “Immodulator peptides covalently modified with small molecules” (priority 2020, dated 2024).
Marks after values point to notes of the source that are not given here. Peptide text beside a SMILES is read from it.

Key:
[1] = Iron-binding competition assay with labeled IM3 (x2E c); details: 375 ng/well labeled IM3 plus 10x unlabeled peptide; no competing peptide = 100
Experimental: (§1) Experiments were conducted by the procedure described above. Ferric iron-charged NTA-coated 96-well plates were used as described. 1 ug/well immodulator peptide complexed to Alexa-488-labeled streptavidin in PBS buffer was added (60 min at room temperature). The plate was washed and counted in a standard fluorometer (excitation/emission: 485/525 nm). The results (fluorescence) show improved iron-binding by the three peptides extended C-terminally by the AVD, (dA)VD, and FVS tripeptides. **p<0.01 vs IM3 control IM3: 200±29; IM4: 45±37**; IM5: 130±77; IM3AVD: 434±29**; IM3dAVD: 418±28**; IM3FVS: 371±33** • (c) Competition assay. The same procedure was used as the preceding experiment, except that 375 ng/well labeled IM3 peptide was used, plus 10× of the indicated unlabeled peptide. ‘No competing peptide’ control value was set to 100. *p<0.05 vs “no peptide” control Competing Peptide/Fluorescence • None: 100±38; IM4: 125±26; IM3: 63±27*; IM5: 40±14*; IM3AVD: 10±28* • (d) Competition assay. The same procedure was used as the preceding experiment, except that labeled IM3AVD peptide was used. **p<0.01 vs “no competing peptide” control • None: 100±9; IM4: 144±44; IM3: 35±16**; IM5: 30±19**; IM3AVD: 9±19** • (e) The same procedure was used as the preceding experiment, except that each peptide was labeled with Alexa-488-labeled streptavidin in PBS buffer and used separately. Binding to IM3 was set to =100. *p<0.05, **p<0.01 vs IM3 control. (Labeled Peptide/Fluorescence) IM1: 1.8±0.4**; IM2: 3.0±1.8**; IM3: 100.0±16.8; IM4: 7.2±1.7*; IM5: 86.7±6.4; IM6: 85.9±14.9; IM3AVD:137.7±11.8*; IM3dAVD:147.4±22.9*; IM3FVS: 101.5±10.5.

A375 cells = assay: A375 cell viability, CellTiterGlo (x10A); type: cell-based; details: 72 hours
Summary of the method: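 Peptides at 2 uM were added to A375 cells (2,000/well, DMEM with 10% FBS) 24 h after seeding, in quadruplicate. Following 72 h at 37 °C, CellTiterGlo luminescence was read after 10 min, reported as percent survival.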

[2] = Strength of binding to iron, plate assay (x2E b); details: 1 ug/well peptide complexed to Alexa-488-streptavidin; ferric iron
Summary of the method: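 Streptavidin-Alexa-488-complexed peptides, some C-terminally extended by three amino acids, were added at 1 ug/well in PBS to ferric iron-charged NTA-coated plates for 60 min at room temperature. Plates were washed and read by fluorescence (485/525 nm).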

[3] = target: T1, AA111-228 DNA-binding domain of RXR-alpha (RXRa-DBD) (Homo sapiens, UniProt P19793); assay: Binding to RXRa-DBD (x3A); details: 1 ug/well RXRa-DBD, 800 ng/well SA488-labelled peptide; background subtracted
T1 construct: purchased Abcam, Cambridge, MA
T1 sequence (P19793 111-228): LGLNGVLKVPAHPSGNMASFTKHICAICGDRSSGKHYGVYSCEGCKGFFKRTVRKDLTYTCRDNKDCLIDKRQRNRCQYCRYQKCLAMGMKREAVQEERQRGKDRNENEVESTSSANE
Experimental: Binding of immodulator peptides to AA111-228 DNA-binding domain of RXR-alpha (RXRa-DBD). 1 ug/well recombinant RXRa-DBD (Abcam, Cambridge, MA) was adsorbed to wells of a 96-well plate for 60 minutes at RT, then blocked with 200 uL 1% BSA in PBS buffer overnight. Plate was washed and 800 ng/well Streptavidin-Alexa 488 conjugate (SA488)-labelled IM peptide was added. The plate was incubated for 60 min at room temperature, washed and counted in a standard fluorometer (excitation/emission 485/525 nm). Background (buffer alone) was subtracted.

[4] = Binding to Echelon PPI Arrays (x9B); set-up: key: 0=no binding; 1=low binding; 2=medium binding; 3=high binding; details: 100 pmol PPI spot, colorimetric readout
Source text: Binding of immodulator peptides to Echelon PPI Arrays. PPI arrays were purchased from Echelon Biosciences (Sal Lake City, UT) and used according to the manufacturer's recommendations. Colorimetric readout from each 100 pmol PPI spot in the array is expressed as 0=no binding, 1=low binding, 2=medium binding and 3=high binding. […] In addition, IM3 and IM5 show slight binding to PI(3,4,5)P3.

[5] = FITC-PI(4)P1 binding to plate-bound peptide with calcium (x9A)
Experimental: Immodulator peptides IM1, IM3 and IM5 (400 ng/well) in PBS were bound to streptavidin-coated 96-well plates at room temperature for 60 minutes, in the presence or absence of 500 uM calcium chloride. Each well also received 200 ng cold PPI plus 10 ng FITC-labeled PI(4,5)P2 or PI(4)P1. The tables below show the relative fluorescence (with/without calcium background) expressed as a percentage of the highest binder, FITC-PI(4,5)P2+cold PI(3,5)P2, which was 2,496 fluorescence units. Background binding without calcium was, in all cases, 200-300 fluorescence units.

[6] = Iron-binding competition assay with labeled IM3AVD (x2E d); details: labeled IM3AVD plus 10x unlabeled peptide; no competing peptide = 100
Experimental: as §1

## N=C(N)NCCC[C@H](NC(=O)CNC(=O)[C@H](CCCCN)NC(=O)[C@H](CO)NC(=O)[C@@H]1CCCN1C(=O)[C@H](CCCNC(=N)N)NC(=O)[C@H](CS)NC(=O)[C@H](CCC(N)=O)NC(=O)[C@H](CCCCN)NC(=O)[C@H](CCCCN)NC(=O)[C@H](CCCCN)NC(=O)[C@H](Cc1ccc(O)cc1)NC(=O)[C@H](Cc1ccccc1)NC(=O)CNC(=O)[C@H](CCCCN)NC(=O)[C@@H](N)CCCCN)C(=O)N[C@@H](CCCCN)C(=O)N[C@@H](CCCNC(=N)N)C(=O)NCC(=O)N[C@@H](Cc1ccccc1)C(=O)N[C@@H](CS)C(=O)N[C@@H](Cc1c[nH]c2ccccc12)C(=O)O [IM3] (H-KKGFYKKKQCRPSKGRKRGFCW-OH; N-terminus and C-terminus assumed)
[1]
  fluorescence of labeled IM3 with competing peptide: 63±27
A375 cells; peptide 2 uM + Kin1400 4 uM (RIG-I agonist)
  percent survival of A375 cells: 62.2** percent
A375 cells; peptide 2 uM, Buffer
  percent survival of A375 cells: 100.3%
[2]
  fluorescence (iron binding): 200±29
[3]
  fluorescence: 6,572±129
[4]
  binding to PI spot: 0
  binding to PI(3,4,5)P3 spot: 1
  binding to PI(4)P1 spot: 0
  binding to PI(4,5)P2 spot: 3
[5]; cold PPI: 3,4,5-P3
  relative fluorescence, FITC-PI(4)P1 bound: 1.2 percentage of the highest binder
[5]; cold PPI: 3,4-P2
  relative fluorescence, FITC-PI(4)P1 bound: 2.4 percentage of the highest binder
[5]; cold PPI: 3,5-P2
  relative fluorescence, FITC-PI(4)P1 bound: 5.6 percentage of the highest binder
[5]; cold PPI: 3-P1
  relative fluorescence, FITC-PI(4)P1 bound: 2.5 percentage of the highest binder
[5]; cold PPI: 4,5-P2
  relative fluorescence, FITC-PI(4)P1 bound: 0.1 percentage of the highest binder
[5]; cold PPI: 4-P1
  relative fluorescence, FITC-PI(4)P1 bound: 2.4 percentage of the highest binder
[5]; cold PPI: 5-P1
  relative fluorescence, FITC-PI(4)P1 bound: 1.9 percentage of the highest binder
[5]; cold PPI: None
  relative fluorescence, FITC-PI(4)P1 bound: 2.5 percentage of the highest binder
[6]
  fluorescence of labeled IM3AVD with competing peptide: 35±16
